Entries after “also recorded” stand apart in the source; their conditions may differ. Where two headings read alike, the source gives them in different places.
What was measured:
GBM cell line U373 [1] = experiment: Inhibition of growth of GBM cell line U373 by single agents (cell counts); type: cell-based, human; conditions: for Inhibition of growth of cell line U373 (in words): single agent; for IC50: U373, exposure for 7 days, estimated from graphic plots (FIG. 1), read-out: concentration that inhibited brain tumor cell proliferation by 50% (IC50)
Source text: From graphic plots of the glioblastoma multiforme GBM cell line U373 (available from the National Institute of Neurological Disorders and Stroke Molecular Pathogenesis Unit, Building 10, Room 5 D37, National Institutes of Health, 900 Rockville Pike, Bethesda, Md., 20892) as a function of exposure to different doses of drug for 7 days, the concentration of each compound that inhibited brain tumor cell proliferation by 50% (IC50) was estimated.
To identify novel therapeutic targets for the treatment of glioblastoma multiforme (GBM), cantharidin analogues were evaluated for their ability to inhibit growth of glioblastoma multiforme cells. Specifically, GBM cell line U373 was used in evaluations.
(§1) The total number of cells is counted in the triplicate cultures at each dose and in controls after 7 days and the average number of cells and the standard deviation is determined.
(§2) The amount of inhibition of GBM cell growth is expressed as the proportion of the number of cells in the experimental dishes compared to the number of cells in control dishes containing only the drug vehicle and culture medium. The average percent of control is plotted and bracketed by one standard deviation calculated from the triplicate measurements.
For all cell culture experiments, cells are allowed to grow in the presence or absence of different concentrations of drug or in the presence of the vehicle used to dissolve the drug, PBS for compound 100 and DMSO for compound 102. Cell counts are done in triplicate on day 3 and day 7 and inhibition of growth is expressed as a percentage of the number of cells present in the experimental well divided by the number of cells in a control well.

[2] = test system: kidney cancer cell line, UMRC; experiment: Inhibition of growth of kidney cancer cell line UMRC; type: cell-based; conditions: single agent, 7 days (FIG. 3)
Source text: (§3) To determine whether there is tumor type specificity of the inhibitory properties of analogues of Compound 100, retinoic acid and Trichostatin A, we measured their inhibitory effects as single agents against the GBM line U373, a breast cancer line, MCF-7 (obtained from ATCC) and a kidney cancer cell line, UMRC (UMRC obtained by Dr. Zhuang, NINDS, NIH from the Intramural Research Support Program, SAIC, National Cancer Institute, Frederick Cancer Research and Development Center).

GBM cell line U373 [3] = experiment: cells; type: cell-based, human
Experimental: as §1, with “To observe the effects Compound 100 in combination with retinoic acids, Compound 100 was combined with all-trans retinoic acid. […] The” for “The”
as §2
Synergism (potentiation) of the inhibitory activity of two drugs in combination is said to be present when the percent survival in the presence of two drugs is less than the product of the percent survivals of the two drugs used alone at the same doses in the combination.

[4] = test system: breast cancer line, MCF-7; experiment: Inhibition of growth of breast cancer cell line MCF-7; type: cell-based; conditions: single agent, 7 days (FIG. 5)
Source text: as §3

Stability at acid pH = type: physicochemical
[5] = Solubility (water, lipid); type: physicochemical; conditions: own compounds
[6] = known cantharidin homologs, stated as known; cited from earlier work

| Compound | melting point | Inhibition of growth of cell line U373 (in words) (GBM cell line U373 [1]; 7 days) | Sensitivity of UMRC compared with U373 (in words) [2] | Inhibition of growth of MCF-7 (in words) [4] | other results |
| --- | --- | --- | --- | --- | --- |
| COC(=O)C1C(C(=O)N2CCN(C)CC2)[C@@H]2CC[C@H]1O2 (stereo partly drawn) | 105 to 107 °C | – | – | – | – |
| O=C(O)C1C(C(=O)N2CCNCC2)[C@@H]2CC[C@H]1O2 (stereo in doubt) [Compound 101, 3-(Piperazine-1-carbonyl)-7-oxa-bicyclo[2.2.1]heptane-2-carboxylic acid] | > 240 °C (dec.) | less activity | – | – | – |
| O=C(O)C1C(C(=O)N2CCN(Cc3ccccc3)CC2)[C@@H]2CC[C@H]1O2 (stereo in doubt) [Compound 103, 3-(4-Benzylpiperazine-1-carbonyl)-7-oxa-bicyclo[2.2.1]heptane-2-carboxylic acid] | > 190 °C (dec.) | less activity | – | – | – |
| COc1ccc(CCN2CCC(NC(=O)C3C(C(=O)O)[C@H]4CC[C@@H]3O4)CC2)cc1 (stereo in doubt) [Compound 104, 3-(1-[2-(4-Methoxy-phenyl)-ethyl]piperidin-4-ylcarbamoyl)-7-oxa-bicyclo[2.2.1]-heptane-2-carboxylic acid] | 140 to 142 °C | less activity | – | – | – |
| CC1=C(/C=C/C(C)=C/C=C/C(C)=C/C(=O)O)C(C)(C)CCC1 [ATRA, all-trans retinoic acid] | – | – | less sensitive than the brain tumor line, U373 | an inhibition in growth | activity at 25 µM (GBM cell line U373 [3]; Homo sapiens, U373 MG, 168 h, read-out: Percent of Control, Observed): 77%; Inhibition of growth of MCF-7 (in words) ([4]; listed as all-trans retinoic acid): as sensitive as U373 |
| CC1=C(/C=C/C(C)=C/C=C/C(C)=C\C(=O)O)C(C)(C)CCC1 [Cis-RA, 13-cis Retinoic Acid] | – | – | – | – | Percent of Control, Observed (GBM cell line U373 [3]; Cis-RA 50 μM, U373 (Table 4)): 93.3 +/− 2.2% of Control |
| CCN1CCN(C(=O)C2C(C(=O)O)[C@H]3CC[C@@H]2O3)CC1 (stereo partly drawn) [Compound 105, 1-(3-Exocarboxy-7-oxabicyclo[2.2.1]heptane-2-exocarbonyl)-4-ethylpiperazine] | – | Increasing dosages demonstrate a greater inhibition of growth | – | – | Inhibitory value against U373, comparison of the two compounds (GBM cell line U373 [1]; 10 μM, seven days (FIG. 8)): identical inhibitory values; Inhibition of growth of cell line U373 (in words) (GBM cell line U373 [1]; 7 days, listed as compound 105): highly active; Inhibition of growth of cell line U373 (in words) (GBM cell line U373 [1]; after three days (FIG. 6)): Increasing dosages demonstrate a greater inhibition of growth; Stability at acid pH (in words) (Stability at acid pH): stable at acid pH; Water solubility (in words) [5]: water soluble |
| CN(C)CCNC(=O)C1C(C(=O)O)[C@H]2CC[C@@H]1O2 (stereo partly drawn) [Compound 106] | 48 to 50 °C | less activity | – | – | – |
| CC(/C=C/C(=O)NO)=C\[C@@H](C)C(=O)c1ccc(N(C)C)cc1 [TSA, Trichostatin A] | – | – | less sensitive than the brain tumor line, U373 | an inhibition in growth | Percent of Control, Observed (GBM cell line U373 [3]; TSA 0.033 μM (0.01 μg/ml), U373 (Table 4)): 71.6 +/− 0.4% of Control; Inhibition of growth of MCF-7 (in words) ([4]; listed as Trichostatin A): as sensitive as U373 |
| C[C@@]12C(=O)OC(=O)[C@]1(C)[C@H]1CC[C@@H]2O1 [cantharidin] | – | – | – | – | Water solubility (in words) [6]: not |
| O=C1SC(=O)[C@H]2[C@@H]1[C@@H]1CC[C@H]2O1 [endothal thioanhydride, reference compound] | – | Increasing dosages demonstrate a greater inhibition of growth; also recorded: greatest inhibition of growth | less sensitive than the brain tumor line, U373 | as sensitive as U373 | IC50 (GBM cell line U373 [1]): 2.5 µM |
| O=C(O)[C@@H]1[C@H](C(=O)O)[C@H]2CC[C@@H]1O2 [endothal] | – | Increasing dosages demonstrate a greater inhibition of growth; also recorded: modest inhibition of growth | less sensitive than the brain tumor line, U373 | as sensitive as U373; also recorded: an inhibition in growth | IC50 (GBM cell line U373 [1]): 15 µM; Percent of Control, Observed (GBM cell line U373 [3]; END 10 uM, U373, 7 days (Table 3)): 65% |
| O=C1OC(=O)[C@H]2[C@@H]1[C@H]1CC[C@H]2O1 [norcantharidin] | – | Increasing dosages demonstrate a greater inhibition of growth | less sensitive than the brain tumor line, U373 | as sensitive as U373 | IC50 (GBM cell line U373 [1]): 12 µM; Water solubility (in words) [6]: not |

— patent US10023587B2, “Oxabicycloheptanes and oxabicycloheptenes, their preparation and use” (LIXTE BIOTECHNOLOGY, INC., priority 2007, dated 2018)
